The text below walks through data of patent publication US20040214833A1, “Tricyclic heteroaromatic compounds” (Boehringer Ingelheim International GmbH, priority 2003, published 2004).

This experiment has as its target T1, N-type calcium channel (Homo sapiens, UniProt Q00975).
T1 construct: expressed in transfected cells; host or cells: HEK 293
Description: Patch-Clamp blockade of voltage-dependent N-type calcium channels in recombinant HEK 293 cells. It counts as cell-based. From the text:
The antinociceptive activity of the compounds of this invention is based on a blockade of the voltage-dependent N-type calcium channels. This inhibiting activity is detected electrophysiologically by the Patch-Clamp technique (cf: Improved patch-clamp techniques for high resolution current recording from cells and cell-free membrane patches; Hamill et al.; Pflügers Archiv, 391, 1981, 85-100) on recombinant HEK 293 cells which express the N-type calcium channel.

Where [1] appears, read: N-type calcium channel, Patch-Clamp, HEK 293 cells, read-out: IC50 value.
Setting [2] is: Patch-Clamp technique, recombinant HEK 293 cells which express the N-type calcium channel, read-out: IC50 values.

Like-named read-outs stand apart in the source and are kept apart here.

T1 sequence (Q00975 whole entry): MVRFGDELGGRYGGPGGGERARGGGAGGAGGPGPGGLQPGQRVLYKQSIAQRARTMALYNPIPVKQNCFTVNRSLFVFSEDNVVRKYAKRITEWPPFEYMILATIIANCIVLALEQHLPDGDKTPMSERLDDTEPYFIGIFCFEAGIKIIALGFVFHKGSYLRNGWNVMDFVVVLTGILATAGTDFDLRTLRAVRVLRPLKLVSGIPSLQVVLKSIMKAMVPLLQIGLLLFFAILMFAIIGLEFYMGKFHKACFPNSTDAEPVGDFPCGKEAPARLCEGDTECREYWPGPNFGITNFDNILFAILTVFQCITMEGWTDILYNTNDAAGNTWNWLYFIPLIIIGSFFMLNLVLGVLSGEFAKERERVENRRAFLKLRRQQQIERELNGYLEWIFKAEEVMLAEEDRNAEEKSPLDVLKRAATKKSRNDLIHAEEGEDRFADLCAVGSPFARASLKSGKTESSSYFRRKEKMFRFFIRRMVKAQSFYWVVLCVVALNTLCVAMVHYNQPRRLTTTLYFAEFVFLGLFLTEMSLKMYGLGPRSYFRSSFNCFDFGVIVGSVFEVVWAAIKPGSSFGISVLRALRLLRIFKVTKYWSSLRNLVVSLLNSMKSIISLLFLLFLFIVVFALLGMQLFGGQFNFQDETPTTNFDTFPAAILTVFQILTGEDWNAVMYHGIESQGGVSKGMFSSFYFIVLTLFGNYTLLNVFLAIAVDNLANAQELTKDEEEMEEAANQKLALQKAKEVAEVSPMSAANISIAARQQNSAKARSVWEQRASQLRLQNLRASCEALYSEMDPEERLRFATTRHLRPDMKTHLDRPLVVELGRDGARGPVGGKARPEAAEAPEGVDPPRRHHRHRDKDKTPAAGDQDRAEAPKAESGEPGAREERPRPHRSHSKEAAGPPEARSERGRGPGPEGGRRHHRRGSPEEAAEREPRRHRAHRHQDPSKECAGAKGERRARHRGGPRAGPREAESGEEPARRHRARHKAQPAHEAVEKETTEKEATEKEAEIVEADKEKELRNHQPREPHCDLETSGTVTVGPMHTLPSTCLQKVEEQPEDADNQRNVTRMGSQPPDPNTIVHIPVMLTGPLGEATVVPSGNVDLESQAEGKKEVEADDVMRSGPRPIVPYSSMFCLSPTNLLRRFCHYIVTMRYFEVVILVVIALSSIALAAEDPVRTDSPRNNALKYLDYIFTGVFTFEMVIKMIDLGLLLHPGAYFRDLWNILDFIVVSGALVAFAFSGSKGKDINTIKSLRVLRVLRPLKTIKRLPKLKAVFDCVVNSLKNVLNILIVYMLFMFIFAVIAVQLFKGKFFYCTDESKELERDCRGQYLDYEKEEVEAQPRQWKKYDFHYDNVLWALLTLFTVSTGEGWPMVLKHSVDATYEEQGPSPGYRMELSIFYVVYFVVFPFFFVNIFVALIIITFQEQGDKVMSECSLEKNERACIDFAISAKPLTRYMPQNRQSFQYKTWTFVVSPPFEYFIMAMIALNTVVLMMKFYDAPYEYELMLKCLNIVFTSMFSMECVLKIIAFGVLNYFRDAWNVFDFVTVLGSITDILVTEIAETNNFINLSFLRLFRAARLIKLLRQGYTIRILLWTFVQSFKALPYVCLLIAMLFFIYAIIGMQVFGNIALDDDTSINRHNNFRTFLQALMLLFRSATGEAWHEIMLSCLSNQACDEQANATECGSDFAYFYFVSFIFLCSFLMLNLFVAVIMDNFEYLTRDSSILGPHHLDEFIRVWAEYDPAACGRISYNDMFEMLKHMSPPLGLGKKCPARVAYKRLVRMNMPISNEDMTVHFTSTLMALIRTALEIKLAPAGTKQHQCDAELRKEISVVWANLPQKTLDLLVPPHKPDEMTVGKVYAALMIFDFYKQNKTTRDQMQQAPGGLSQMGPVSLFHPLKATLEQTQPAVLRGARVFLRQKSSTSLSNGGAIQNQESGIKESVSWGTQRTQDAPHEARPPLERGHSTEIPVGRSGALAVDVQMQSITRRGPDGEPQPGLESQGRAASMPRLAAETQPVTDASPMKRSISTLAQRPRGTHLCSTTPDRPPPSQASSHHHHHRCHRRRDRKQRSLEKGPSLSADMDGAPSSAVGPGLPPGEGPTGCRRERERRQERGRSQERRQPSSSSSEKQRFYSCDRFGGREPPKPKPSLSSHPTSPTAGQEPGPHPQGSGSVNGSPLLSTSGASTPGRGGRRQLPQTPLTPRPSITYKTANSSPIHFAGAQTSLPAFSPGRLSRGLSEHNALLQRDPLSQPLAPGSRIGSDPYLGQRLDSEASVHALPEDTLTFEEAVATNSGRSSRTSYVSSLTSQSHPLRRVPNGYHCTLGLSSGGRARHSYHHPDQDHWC
T1 sequence (P54289 25-956 partner limits assumed): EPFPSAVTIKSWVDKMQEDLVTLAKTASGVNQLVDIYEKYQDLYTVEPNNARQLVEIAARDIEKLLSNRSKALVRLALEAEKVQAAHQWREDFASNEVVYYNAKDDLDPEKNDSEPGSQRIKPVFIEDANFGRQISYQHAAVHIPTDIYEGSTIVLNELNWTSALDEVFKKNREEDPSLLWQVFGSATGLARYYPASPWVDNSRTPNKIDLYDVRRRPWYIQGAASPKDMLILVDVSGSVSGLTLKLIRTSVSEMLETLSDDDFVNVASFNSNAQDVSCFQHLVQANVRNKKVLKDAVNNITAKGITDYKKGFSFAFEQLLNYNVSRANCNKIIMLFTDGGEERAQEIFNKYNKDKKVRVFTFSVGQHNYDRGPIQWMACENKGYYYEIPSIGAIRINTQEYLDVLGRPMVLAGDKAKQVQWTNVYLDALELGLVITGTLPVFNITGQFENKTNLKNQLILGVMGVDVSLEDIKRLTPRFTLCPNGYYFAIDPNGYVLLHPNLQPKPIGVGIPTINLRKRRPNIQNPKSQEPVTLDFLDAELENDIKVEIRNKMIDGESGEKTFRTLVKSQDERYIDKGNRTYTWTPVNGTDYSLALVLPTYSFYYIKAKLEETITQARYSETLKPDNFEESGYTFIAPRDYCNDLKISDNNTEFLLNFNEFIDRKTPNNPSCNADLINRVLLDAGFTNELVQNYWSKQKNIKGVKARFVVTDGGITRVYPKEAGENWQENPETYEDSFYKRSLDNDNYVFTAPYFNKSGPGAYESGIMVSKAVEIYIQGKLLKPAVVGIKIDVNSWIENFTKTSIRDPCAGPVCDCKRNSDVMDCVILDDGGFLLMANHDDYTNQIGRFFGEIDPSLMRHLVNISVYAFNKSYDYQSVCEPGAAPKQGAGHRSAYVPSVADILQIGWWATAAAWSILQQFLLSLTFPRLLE
T1 sequence (P54289 957-1103 partner limits assumed): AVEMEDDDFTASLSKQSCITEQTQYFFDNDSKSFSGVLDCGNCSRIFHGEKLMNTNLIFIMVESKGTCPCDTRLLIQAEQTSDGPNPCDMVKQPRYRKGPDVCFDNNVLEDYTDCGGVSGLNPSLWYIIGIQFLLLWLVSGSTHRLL
T1 sequence (P54284 whole entry partner): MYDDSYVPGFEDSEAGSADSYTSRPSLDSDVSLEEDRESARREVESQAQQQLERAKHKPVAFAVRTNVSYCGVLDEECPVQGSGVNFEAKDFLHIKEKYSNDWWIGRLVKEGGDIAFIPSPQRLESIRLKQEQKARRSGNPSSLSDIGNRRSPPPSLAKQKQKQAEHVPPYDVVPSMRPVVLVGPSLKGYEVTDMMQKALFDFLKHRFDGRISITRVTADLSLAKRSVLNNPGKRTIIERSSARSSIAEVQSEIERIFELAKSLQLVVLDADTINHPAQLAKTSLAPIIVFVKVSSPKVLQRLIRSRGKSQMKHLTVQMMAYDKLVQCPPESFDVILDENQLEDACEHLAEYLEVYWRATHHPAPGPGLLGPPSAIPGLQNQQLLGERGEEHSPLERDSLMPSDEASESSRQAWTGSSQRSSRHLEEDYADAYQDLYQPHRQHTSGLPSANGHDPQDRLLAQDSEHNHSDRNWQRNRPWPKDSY

As for `CNc1cc(-c2ccncc2)nc2ccc3c(ncn3C)c12` [Example 1, 3-methyl-9-methylamino-7-(pyridin-4-yl)-3H-imidazo[4,5-f]quinoline], under setting [1], the IC50 worked out at 9.9 µM.

Take `CNc1cc(-c2cccc(F)c2)nc2ccc3c(ncn3C)c12` [Example 2, 7-(3-fluorophenyl)-3-methyl-9-methylamino-3H-imidazo [4,5-f]quinoline]: the IC50 under setting [1] is 15.2 µM.

Regarding `CN(C)c1cc(-c2cccc(F)c2)nc2ccc3c(ncn3C)c12` [Example 3, 9-dimethylamino-7-(3-fluorophenyl)-3-methyl-3H-imidazo [4,5-f]quinoline], the IC50 value result (N-type calcium channel, Patch-Clamp, HEK 293 cells) is on record as “biphasic”.

In the case of `Cc1nc2c(ccc3nc(-c4cccc(F)c4)cc(N(C)C)c32)s1` [Example 4, 9-dimethylamino-7-(3-fluorophenyl)-2-methyl-thiazolo[4,5-f]quinoline], under setting [2], the half-maximal inhibitory concentration (IC50) amounted to 3.6 µM.

As to `CN(C)c1cc(-c2cccc(F)c2)nc2ccc3ncsc3c12` [Example 5, 9-dimethylamino-7-(3-fluorophenyl)-thiazolo[5,4-f]quinoline], under setting [1], the IC50 came to 14.3 µM.

For the compound `CNc1cc(-c2cccc(F)c2)nc2ccc3sc(C)nc3c12` [Example 6, 7-(3-fluorophenyl)-2-methyl-9-methylamino thiazolo[4,5-f]quinoline], the IC50 under setting [2] amounted to 2 µM.

As usually defined, the IC50 is the concentration that inhibits the measured activity by half.
